Results published in patent publication US12427157B2, “Methods for treatment of diseases involving acidic or hypoxic diseased tissues” (Cybrexa 1, Inc., priority 2018, dated 2025).
Residues, ends and D or L forms follow the SMILES beside them. *: point of attachment. X7 = C[C@@H](COC(=O)NCN1c2cc(F)cc3c(=O)[nH]nc(c23)[C@H](c2ncnn2C)[C@H]1c1ccc(F)cc1)S*; X8 = Cn1ncnc1[C@H]1c2n[nH]c(=O)c3cc(F)cc(c23)N(CNC(=O)OCC2(S*)CCC2)[C@@H]1c1ccc(F)cc1; X4 = C[C@H](COC(=O)NCN1c2cc(F)cc3c(=O)[nH]nc(c23)[C@H](c2ncnn2C)[C@H]1c1ccc(F)cc1)S*; X1 = Cn1ncnc1[C@H]1c2n[nH]c(=O)c3cc(F)cc(c23)N(CNC(=O)OCCS*)[C@@H]1c1ccc(F)cc1

How the values were obtained:
[1] = test system: DLD-1 BRCA2−/− cells; assay: Growth delay assay; format: cell-based, Human; conditions: pH 7.4, BRCA (−/−) DLD-1, 96 h
Description: Cells were plated in 96 well black walled-clear bottom plates (Griener), DLD-1 WT cells at 2500 cells per well, DLD-1 BRCA2−/− at 5000 cells per well, in growth media containing 10% FBS. Cells were allowed to adhere at room temperature for 60 minutes before returning to a 37 C, 5% CO2 incubator. After 24 hours, media was removed and replaced with fresh growth media containing various drug concentrations. Each drug concentration was added in triplicate. Non-drug treated controls contained growth media only. Cells were returned to the incubator. Ninety-six hours after addition of drug, cells were fixed with 4% paraformaldehyde for 20 minutes and stained with Hoechst at 1 ug/mL. The plates were imaged on a Cytation 5 auto imager (BioTek) and cells were counted using CellProfiler (http://cellprofiler.org). The percent cell growth delay was calculated and data plotted using GraphPad Prism.

[2] = target: PARP (Homo sapiens, UniProt P09874); assay: Enzymatic Assay 2: HT Universal Chemiluminescent PARP Assay of cleaved compounds; conditions: read-out: IC50 Enzymatic Assay 2; Examples cleaved per Example A (crude cleavage solution); R^8H starting materials as such;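 note: PARP reaction with activated DNA run 1 h at room temperature, product detected via streptavidin-HRP and luminescence endpoint reading on a plate reader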
Chain of PARP (P09874 whole entry): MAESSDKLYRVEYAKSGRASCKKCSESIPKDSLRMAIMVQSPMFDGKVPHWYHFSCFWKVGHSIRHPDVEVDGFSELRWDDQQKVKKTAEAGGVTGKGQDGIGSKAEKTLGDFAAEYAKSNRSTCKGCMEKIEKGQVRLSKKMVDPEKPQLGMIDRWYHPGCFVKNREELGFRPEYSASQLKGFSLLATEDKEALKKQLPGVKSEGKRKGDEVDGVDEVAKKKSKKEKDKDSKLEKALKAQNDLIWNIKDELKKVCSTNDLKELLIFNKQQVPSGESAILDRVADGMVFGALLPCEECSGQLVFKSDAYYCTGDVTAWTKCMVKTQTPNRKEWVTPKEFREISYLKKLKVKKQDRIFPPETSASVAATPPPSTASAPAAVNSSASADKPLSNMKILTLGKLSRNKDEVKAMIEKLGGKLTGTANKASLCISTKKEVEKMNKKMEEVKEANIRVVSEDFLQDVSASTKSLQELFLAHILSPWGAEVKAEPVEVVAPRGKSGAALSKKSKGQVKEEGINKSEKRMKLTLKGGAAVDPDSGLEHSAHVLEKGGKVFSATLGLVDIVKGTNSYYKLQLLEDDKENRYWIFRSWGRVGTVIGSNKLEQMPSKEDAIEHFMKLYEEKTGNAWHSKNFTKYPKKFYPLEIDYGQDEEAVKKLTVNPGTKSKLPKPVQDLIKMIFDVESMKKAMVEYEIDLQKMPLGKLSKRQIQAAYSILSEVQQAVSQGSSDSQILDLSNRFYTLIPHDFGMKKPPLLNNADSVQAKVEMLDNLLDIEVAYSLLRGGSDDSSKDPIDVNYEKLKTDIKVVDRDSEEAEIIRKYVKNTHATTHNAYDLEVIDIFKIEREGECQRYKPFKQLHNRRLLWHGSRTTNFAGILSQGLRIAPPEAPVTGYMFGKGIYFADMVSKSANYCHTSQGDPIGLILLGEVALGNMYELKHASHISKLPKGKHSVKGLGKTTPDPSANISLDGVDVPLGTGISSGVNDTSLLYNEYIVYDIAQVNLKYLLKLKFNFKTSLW

SMILES | IC50 [1] [nM] | IC50 [2] [µM]
CC[C@H](C)[C@H](NC(=O)[C@@H]1CCCN1C(=O)[C@H](CC(N)=O)NC(=O)[C@H](CCC(N)=O)NC(=O)[C@H](CCC(=O)O)NC(=O)[C@H](C)N)C(=O)N[C@@H](Cc1ccc(O)cc1)C(=O)N[C@@H](Cc1c[nH]c2ccccc12)C(=O)N[C@@H](C)C(=O)N[C@@H](CCCNC(=N)N)C(=O)N[C@@H](Cc1ccc(O)cc1)C(=O)N[C@@H](C)C(=O)N[C@@H](CC(=O)O)C(=O)N[C@@H](Cc1c[nH]c2ccccc12)C(=O)N[C@@H](CC(C)C)C(=O)N[C@@H](Cc1ccccc1)C(=O)N[C@H](C(=O)N[C@H](C(=O)N1CCC[C@H]1C(=O)N[C@@H](CC(C)C)C(=O)N[C@@H](CC(C)C)C(=O)N[C@@H](CC(C)C)C(=O)N[C@@H](CC(C)C)C(=O)N[C@@H](CC(=O)O)C(=O)N[C@@H](CC(C)C)C(=O)N[C@@H](C)C(=O)N[C@@H](CC(C)C)C(=O)N[C@@H](CC(C)C)C(=O)N[C@H](C(=O)N[C@@H](CC(=O)O)C(=O)N[C@@H](C)C(=O)N[C@@H](CC(=O)O)C(=O)N[C@@H](CCC(=O)O)C(=O)N[C@@H](CSSCCOC(=O)NCN1c2cc(F)cc3c(=O)[nH]nc(c23)[C@H](c2ncnn2C)[C@H]1c1ccc(F)cc1)C(=O)NCC(=O)O)C(C)C)[C@@H](C)O)[C@@H](C)O [Example 12] (H-AEQNPIYWARYADWLFTTPLLLLDLALLVDADEC(X1)G-OH; N-terminus and C-terminus assumed) | 162 | 0.00047
CC[C@H](C)[C@H](NC(=O)[C@@H]1CCCN1C(=O)[C@H](CC(N)=O)NC(=O)[C@H](CCC(N)=O)NC(=O)[C@H](CCC(=O)O)NC(=O)[C@H](C)N)C(=O)N[C@@H](Cc1ccc(O)cc1)C(=O)N[C@@H](Cc1c[nH]c2ccccc12)C(=O)N[C@@H](C)C(=O)N[C@@H](CCCNC(=N)N)C(=O)N[C@@H](Cc1ccc(O)cc1)C(=O)N[C@@H](C)C(=O)N[C@@H](CC(=O)O)C(=O)N[C@@H](Cc1c[nH]c2ccccc12)C(=O)N[C@@H](CC(C)C)C(=O)N[C@@H](Cc1ccccc1)C(=O)N[C@H](C(=O)N[C@H](C(=O)N1CCC[C@H]1C(=O)N[C@@H](CC(C)C)C(=O)N[C@@H](CC(C)C)C(=O)N[C@@H](CC(C)C)C(=O)N[C@@H](CC(C)C)C(=O)N[C@@H](CC(=O)O)C(=O)N[C@@H](CC(C)C)C(=O)N[C@@H](C)C(=O)N[C@@H](CC(C)C)C(=O)N[C@@H](CC(C)C)C(=O)N[C@H](C(=O)N[C@@H](CC(=O)O)C(=O)N[C@@H](C)C(=O)N[C@@H](CC(=O)O)C(=O)N[C@@H](CCC(=O)O)C(=O)N[C@@H](CSS[C@@H](C)COC(=O)NCN1c2cc(F)cc3c(=O)[nH]nc(c23)[C@H](c2ncnn2C)[C@H]1c1ccc(F)cc1)C(=O)NCC(=O)O)C(C)C)[C@@H](C)O)[C@@H](C)O [Example 13] (H-AEQNPIYWARYADWLFTTPLLLLDLALLVDADEC(X7)G-OH; N-terminus and C-terminus assumed) | 51 | 0.001
CC[C@H](C)[C@H](NC(=O)[C@@H]1CCCN1C(=O)[C@H](CC(N)=O)NC(=O)[C@H](CCC(N)=O)NC(=O)[C@H](CCC(=O)O)NC(=O)[C@H](C)N)C(=O)N[C@@H](Cc1ccc(O)cc1)C(=O)N[C@@H](Cc1c[nH]c2ccccc12)C(=O)N[C@@H](C)C(=O)N[C@@H](CCCNC(=N)N)C(=O)N[C@@H](Cc1ccc(O)cc1)C(=O)N[C@@H](C)C(=O)N[C@@H](CC(=O)O)C(=O)N[C@@H](Cc1c[nH]c2ccccc12)C(=O)N[C@@H](CC(C)C)C(=O)N[C@@H](Cc1ccccc1)C(=O)N[C@H](C(=O)N[C@H](C(=O)N1CCC[C@H]1C(=O)N[C@@H](CC(C)C)C(=O)N[C@@H](CC(C)C)C(=O)N[C@@H](CC(C)C)C(=O)N[C@@H](CC(C)C)C(=O)N[C@@H](CC(=O)O)C(=O)N[C@@H](CC(C)C)C(=O)N[C@@H](C)C(=O)N[C@@H](CC(C)C)C(=O)N[C@@H](CC(C)C)C(=O)N[C@H](C(=O)N[C@@H](CC(=O)O)C(=O)N[C@@H](C)C(=O)N[C@@H](CC(=O)O)C(=O)N[C@@H](CCC(=O)O)C(=O)N[C@@H](CSS[C@H](C)COC(=O)NCN1c2cc(F)cc3c(=O)[nH]nc(c23)[C@H](c2ncnn2C)[C@H]1c1ccc(F)cc1)C(=O)NCC(=O)O)C(C)C)[C@@H](C)O)[C@@H](C)O [Example 14] (H-AEQNPIYWARYADWLFTTPLLLLDLALLVDADEC(X4)G-OH; N-terminus and C-terminus assumed) | 72 | 0.0005
CC(C)C[C@H](NC(=O)[C@H](Cc1ccc(O)cc1)NC(=O)[C@H](C)NC(=O)[C@H](CCCNC(=N)N)NC(=O)[C@H](Cc1c[nH]c2ccccc12)NC(=O)[C@@H]1CCCN1C(=O)[C@H](CC(N)=O)NC(=O)[C@H](CCC(N)=O)NC(=O)[C@H](CC(=O)O)NC(=O)[C@H](CC(=O)O)NC(=O)[C@H](C)N)C(=O)N[C@@H](CC(=O)O)C(=O)N[C@@H](CC(C)C)C(=O)N[C@@H](CC(C)C)C(=O)N[C@@H](Cc1ccccc1)C(=O)N1CCC[C@H]1C(=O)N[C@H](C(=O)N[C@@H](CC(=O)O)C(=O)N[C@H](C(=O)N[C@@H](CC(C)C)C(=O)N[C@@H](CC(C)C)C(=O)N[C@@H](CC(C)C)C(=O)N[C@@H](CC(=O)O)C(=O)N[C@@H](CC(C)C)C(=O)N[C@@H](CC(C)C)C(=O)N[C@@H](Cc1c[nH]c2ccccc12)C(=O)N[C@@H](CSSCCOC(=O)NCN1c2cc(F)cc3c(=O)[nH]nc(c23)[C@H](c2ncnn2C)[C@H]1c1ccc(F)cc1)C(=O)NCC(=O)O)[C@@H](C)O)[C@@H](C)O [Example 16] | 84 | 0.00061
CC(C)C[C@H](NC(=O)[C@H](Cc1ccc(O)cc1)NC(=O)[C@H](C)NC(=O)[C@H](CCCNC(=N)N)NC(=O)[C@H](Cc1c[nH]c2ccccc12)NC(=O)[C@@H]1CCCN1C(=O)[C@H](CC(N)=O)NC(=O)[C@H](CCC(N)=O)NC(=O)[C@H](CC(=O)O)NC(=O)[C@H](CC(=O)O)NC(=O)[C@H](C)N)C(=O)N[C@@H](CC(=O)O)C(=O)N[C@@H](CC(C)C)C(=O)N[C@@H](CC(C)C)C(=O)N[C@@H](Cc1ccccc1)C(=O)N1CCC[C@H]1C(=O)N[C@H](C(=O)N[C@@H](CC(=O)O)C(=O)N[C@H](C(=O)N[C@@H](CC(C)C)C(=O)N[C@@H](CC(C)C)C(=O)N[C@@H](CC(C)C)C(=O)N[C@@H](CC(=O)O)C(=O)N[C@@H](CC(C)C)C(=O)N[C@@H](CC(C)C)C(=O)N[C@@H](Cc1c[nH]c2ccccc12)C(=O)N[C@@H](CC(=O)O)C(=O)N[C@@H](C)C(=O)N[C@@H](CC(=O)O)C(=O)N[C@@H](CCC(=O)O)C(=O)N[C@@H](CSSCCOC(=O)NCN1c2cc(F)cc3c(=O)[nH]nc(c23)[C@H](c2ncnn2C)[C@H]1c1ccc(F)cc1)C(=O)NCC(=O)O)[C@@H](C)O)[C@@H](C)O [Example 17] | 50 | 0.00041
CC[C@H](C)[C@H](NC(=O)[C@@H]1CCCN1C(=O)[C@H](CC(N)=O)NC(=O)[C@H](CCC(N)=O)NC(=O)[C@H](CCC(=O)O)NC(=O)[C@H](C)N)C(=O)N[C@@H](Cc1ccc(O)cc1)C(=O)N[C@@H](Cc1c[nH]c2ccccc12)C(=O)N[C@@H](C)C(=O)N[C@@H](CCCNC(=N)N)C(=O)N[C@@H](Cc1ccc(O)cc1)C(=O)N[C@@H](C)C(=O)N[C@@H](CC(=O)O)C(=O)N[C@@H](Cc1c[nH]c2ccccc12)C(=O)N[C@@H](CC(C)C)C(=O)N[C@@H](Cc1ccccc1)C(=O)N[C@H](C(=O)N[C@H](C(=O)N1CCC[C@H]1C(=O)N[C@@H](CC(C)C)C(=O)N[C@@H](CC(C)C)C(=O)N[C@@H](CC(C)C)C(=O)N[C@@H](CC(C)C)C(=O)N[C@@H](CC(=O)O)C(=O)N[C@@H](CC(C)C)C(=O)N[C@@H](C)C(=O)N[C@@H](CC(C)C)C(=O)N[C@@H](CC(C)C)C(=O)N[C@H](C(=O)N[C@@H](CC(=O)O)C(=O)N[C@@H](C)C(=O)N[C@@H](CC(=O)O)C(=O)N[C@@H](CCC(=O)O)C(=O)N[C@@H](CSSC1(COC(=O)NCN2c3cc(F)cc4c(=O)[nH]nc(c34)[C@H](c3ncnn3C)[C@H]2c2ccc(F)cc2)CCC1)C(=O)NCC(=O)O)C(C)C)[C@@H](C)O)[C@@H](C)O [Example 39] (H-AEQNPIYWARYADWLFTTPLLLLDLALLVDADEC(X8)G-OH; N-terminus and C-terminus assumed) | 104 | 0.003
CC(C)C[C@H](NC(=O)[C@H](Cc1ccc(O)cc1)NC(=O)[C@H](C)NC(=O)[C@H](CCCNC(=N)N)NC(=O)[C@H](Cc1c[nH]c2ccccc12)NC(=O)[C@@H]1CCCN1C(=O)[C@H](CC(N)=O)NC(=O)[C@H](CCC(N)=O)NC(=O)[C@H](CC(=O)O)NC(=O)[C@H](CC(=O)O)NC(=O)[C@H](C)N)C(=O)N[C@@H](CC(=O)O)C(=O)N[C@@H](CC(C)C)C(=O)N[C@@H](CC(C)C)C(=O)N[C@@H](Cc1ccccc1)C(=O)N1CCC[C@H]1C(=O)N[C@H](C(=O)N[C@@H](CC(=O)O)C(=O)N[C@H](C(=O)N[C@@H](CC(C)C)C(=O)N[C@@H](CC(C)C)C(=O)N[C@@H](CC(C)C)C(=O)N[C@@H](CC(=O)O)C(=O)N[C@@H](CC(C)C)C(=O)N[C@@H](CC(C)C)C(=O)N[C@@H](Cc1c[nH]c2ccccc12)C(=O)N[C@@H](CSS[C@H](C)COC(=O)NCN1c2cc(F)cc3c(=O)[nH]nc(c23)[C@H](c2ncnn2C)[C@H]1c1ccc(F)cc1)C(=O)NCC(=O)O)[C@@H](C)O)[C@@H](C)O [Example 40] | 64 | 0.0011
